Converted amounts (≈) assume the structure as drawn. The source made the active and inactive calls. The rule behind the calls is not given here.
Assays:
Assay type in all cases: functional
[1] = tested on: A549; test: Cytotoxicity against human A549 cells after 24 hrs by SRB assay; conditions: A549, 24 h, read-out: ED50 (the source's name)
[2] = tested on: HT-29; test: Cytotoxicity against human HT-29 cells after 24 hrs by SRB assay; conditions: HT-29, 24 h, read-out: ED50 (the source's name)
[3] = tested on: MCF7; test: Cytotoxicity against human MCF7 cells after 24 hrs by SRB assay; conditions: MCF7, 24 h, read-out: ED50 (the source's name)
[4] = (§1) Cytotoxicity against human RPMI cells after 24 hrs by SRB assay; conditions: read-out: ED50 (the source's name)
[5] = tested on: U-251; test: Cytotoxicity against human U251 cells after 24 hrs by SRB assay; conditions: for EC50: U-251, 24 h, read-out: ED50 (the source's name)
[6] = tested on: RPMI; test: as §1

C[C@@H]1O[C@@H](O[C@H]2C[C@](O)(C(=O)CO)Cc3c(O)c4c(c(O)c32)C(=O)c2ccccc2C4=O)[C@H](F)[C@H](O)[C@@H]1O
EC50 [1]: 0.008 µg/mL (≈ 0.015 µM) | EC50 [2]: > 1 ng/mL | EC50 [3]: 0.02 µg/mL (≈ 0.0376 µM) | EC50 [4]: 0.02 µg/mL (≈ 0.0376 µM) | EC50 [5]: 0.02 µg/mL (≈ 0.0376 µM)

COc1cccc2c1C(=O)c1c(O)c3c(c(O)c1C2=O)C[C@@](O)(C(=O)CO)C[C@@H]3O[C@H]1C[C@H](N)[C@H](O)[C@H](C)O1 [DOXORUBICIN]
EC50 [1]: 0.03 µg/mL (≈ 0.0552 µM) | EC50 [3]: 0.03 µg/mL (≈ 0.0552 µM) | EC50 [4]: 0.02 µg/mL (≈ 0.0368 µM) | EC50 [5]: 0.02 µg/mL (≈ 0.0368 µM)

C[C@@H]1O[C@@H](O[C@H]2C[C@](O)(C(=O)CBr)Cc3c(O)c4c(c(O)c32)C(=O)c2ccccc2C4=O)[C@H](F)[C@H](O)[C@@H]1O
EC50 [1]: 0.6 µg/mL (≈ 1.01 µM) | EC50 [3]: 0.4 µg/mL (≈ 0.672 µM) | ED50 [6]: inactive | ED50 [5]: inactive

CC(=O)O[C@H]1[C@@H](F)[C@H](O[C@H]2C[C@](O)(C(C)=O)Cc3c(O)c4c(c(O)c32)C(=O)c2ccccc2C4=O)O[C@@H](C)[C@H]1OC(C)=O
EC50 [1]: 0.07 µg/mL (≈ 0.117 µM) | EC50 [2]: 1 ng/mL (≈ 0.00167 µM) | EC50 [3]: 0.06 µg/mL (≈ 0.0999 µM) | EC50 [4]: 0.05 µg/mL (≈ 0.0833 µM) | EC50 [5]: 0.1 µg/mL (≈ 0.167 µM)

CC(=O)[C@]1(O)Cc2c(O)c3c(c(O)c2[C@@H](O[C@@H]2O[C@@H](C)[C@@H](O)[C@@H](O)[C@H]2F)C1)C(=O)c1ccccc1C3=O
EC50 [1]: 0.008 µg/mL (≈ 0.0155 µM) | EC50 [3]: 0.03 µg/mL (≈ 0.0581 µM) | EC50 [4]: 0.03 µg/mL (≈ 0.0581 µM) | EC50 [5]: 0.04 µg/mL (≈ 0.0774 µM)
